Counter-ions that a name gives are not always drawn.
Key:
physchem = format: physicochemical; conditions: water
Procedure: Bei Anwendung von Ambroxol muß die Dosis 50 bis 100 mg betragen. Berücksichtigt man, daß Ambroxol nur in 1 %iger Lösung stabil ist und alle konzentrierteren Lösungen bei […] Temperaturen zur […], so zeigt dies, […] in der Praxis in einer Dosis von 5 bis 10 ml zur Anwendung kommen müßte, die völlig unrealistisch ist.

[1] = test system: tracheobronchiales oder sinubronchiales Syndrom; conditions: inhalate in 1 %iger Emser Sole; patients who also had rhinitis needed additional cold remedies; cited from earlier work
Kaninchenauge = conditions: 1%-ige Ambroxol-HCL-Lösung; cited from earlier work

| SMILES | solubility (physchem) [µg/mL] | Wirksamkeit bei Patienten mit tracheobronchialem oder sinubronchialem Syndrom [1] | Reizung des Kaninchenauges (Kaninchenauge) |
| --- | --- | --- | --- |
| Nc1c(Br)cc(Br)cc1CN[C@H]1CC[C@H](O)CC1 [Ambroxol, trans-4-[(2-Amino-3,5-dibrom-benzyl)-amino]cyclohexanol] | ≤ 10000 | wirksam | – |
| Nc1c(Br)cc(Br)cc1CN[C@H]1CC[C@H](O)CC1 [Ambroxol-HCL] | – | – | keine Reizung |
